The text below walks through data of patent publication US8114885B2, “Chemical compounds” (GlaxoSmithKline LLC, priority 2000, dated 2012).

The test system of this assay is HUVEC. Nature of the assay: Human Umbilical Vein Endothelial Cell (HUVEC) proliferation assay (BrdU incorporation). The format is cell-based. Particulars: VEGF-stimulated HUVEC, 72 hrs, read-out: Inhibition of HUVEC proliferation IC50. The protocol:
Human Umbilical Vein Endothelial Cell (HUVEC) Proliferation Assay (BrdU Incorporation) Materials
HUVEC cells and EGM-MV (Endothelial cell growth medium—microvascular) were purchased from Clonetics (San Diego, Calif.). VEGF and bFGF were purchased from R&D Systems (Minneapolis, Minn.). Anti-BrdU antibody was obtained from Chemicon International (Temecula, Calif.).
HUVECs were routinely maintained in EGM-MV medium and were used within passage 7. HUVECs were plated at a density of 2500 cells/well in M199 medium containing 5% FBS (Hyclone) in type I collagen coated plate (Becton Dickinson). The plate was incubated at 37° C. overnight. The medium was removed by aspiration, and test compounds were added to each well in a volume of 0.1 ml/well in serum-free M199 medium. Compound concentrations ranged from 1.5 nM to 30 micromolar. The plate was incubated for 30 min at 37° C. Another 0.1 ml of serum-free M199 medium containing BSA and VEGF (or bFGF) was added to give a final concentration of 0.1% BSA and 10 ng/ml VEGF (0.3 ng/ml bFGF). The plate was incubated at 37° C. for 72 hrs. BrdU was added to each well after the first 48 hrs to give a concentration of 10 micromolar. The calorimetric ELISA assay was performed according to manufacturer's (Roche Molecular Sciences) instructions, with detection by absorbance reading at 450 nm. Results were plotted as concentration of test compound vs. absorbance to give an IC50 value for inhibition of BrdU incorporation.

With `CC(=O)Nc1cccc(Nc2nccc(N(C)c3ccc4c(C)n[nH]c4c3)n2)c1` [Example 31, N-[3-({4-[methyl(3-methyl-1H-indazol-6-yl)amino]-2-pyrimidinyl}amino)phenyl]acetamide], the IC50 was in the range of 1 to 200 nM.

`CCN(c1ccc2c(C)n[nH]c2c1)c1ccnc(Nc2cccc(NC(C)=O)c2)n1` [Example 32, N-[3-({4-[ethyl(3-methyl-1H-indazol-6-yl)amino]-2-pyrimidinyl}amino)phenyl]acetamide]: the IC50 lay within 1 to 200 nM.

Take `COc1ccc(S(=O)(=O)Cc2cc(C)on2)cc1Nc1nccc(Nc2ccc3c(C)n[nH]c3c2)n1` [Example 33, N^2-(2-methoxy-5-{[(5-methyl-3-isoxazolyl)methyl]sulfonyl}phenyl)-N^4-(3-methyl-1H-indazol-6-yl)-2,4-pyrimidinediamine]: the IC50 is over 1000 nM.

In the case of `COc1ccc(S(N)(=O)=O)cc1Nc1nccc(Nc2ccc3c(C)n[nH]c3c2)n1` [Example 34, 4-methoxy-3-({4-[(3-methyl-1H-indazol-6-yl)amino]-2-pyrimidinyl}amino)benzenesulfonamide], the IC50 fell in the range of 201 to 500 nM.

For the compound `COc1ccc(S(=O)(=O)C(C)C)cc1Nc1nccc(N(C)c2ccc3c(C)n[nH]c3c2)n1` [Example 35, N^2-[5-(isopropylsulfonyl)-2-methoxyphenyl]-N^4-methyl-N^4-(3-methyl-1H-indazol-6-yl)-2,4-pyrimidinediamine], the IC50 lay in the range of 1 to 200 nM.

Consider `CCS(=O)(=O)c1ccc(OC)c(Nc2nccc(N(c3ccc4c(C)n[nH]c4c3)C(C)C)n2)c1` [Example 36, N^2-[5-(ethylsulfonyl)-2-methoxyphenyl]-N^4-isopropyl-N^4-(3-methyl-1H-indazol-6-yl)-2,4-pyrimidinediamine], for which the IC50 is over 1000 nM.

As for `CN(c1ccc2cn[nH]c2c1)c1ccnc(Nc2cccc(CS(C)(=O)=O)c2)n1` [Example 37, N^4-(1H-indazol-6-yl)-N^4-methyl-N^2-{3-[(methylsulfonyl)methyl]phenyl}-2,4-pyrimidinediamine], the IC50 is 201 to 500 nM.

Turning to `Cc1nn(C)c2cc(N(C)c3ccnc(Nc4cccc(CS(C)(=O)=O)c4)n3)ccc12` [Example 38, N^4-(1,3-dimethyl-1H-indazol-6-yl)-N^4-methyl-N^2-{3-[(methylsulfonyl)methyl]phenyl}-2,4-pyrimidinediamine], the IC50 lay within 201 to 500 nM.

As for `Cc1c2ccc(N(C)c3ccnc(Nc4cccc(CS(C)(=O)=O)c4)n3)cc2nn1C` [Example 39, N^4-(2,3-dimethyl-2H-indazol-6-yl)-N^4-methyl-N^2-{3-[(methylsulfonyl)methyl]phenyl}-2,4-pyrimidinediamine], the IC50 was 1 to 200 nM.

As for `CCS(=O)(=O)c1ccc(OC)c(Nc2nccc(N(C)c3ccc4c(C)n(C)nc4c3)n2)c1` [Example 40, N^4-(2,3-dimethyl-2H-indazol-6-yl)-N^2-[5-(ethylsulfonyl)-2-methoxyphenyl]-N^4-methyl-2,4-pyrimidinediamine], the IC50 fell in the range of 1 to 200 nM.

Regarding `CCC(=O)c1ccc(OC)c(Nc2nccc(Nc3ccc4c(C)n[nH]c4c3)n2)c1` [Example 41, 1-[4-methoxy-3-({4-[(3-methyl-1H-indazol-6-yl)amino]-2-pyrimidinyl}amino)phenyl]-1-propanone], the IC50 was 501 to 1000 nM.

In the case of `COc1ccc(S(=O)(=O)Nc2cccc(Nc3nccc(N(C)c4ccc5c(C)n[nH]c5c4)n3)c2)cc1` [Example 42, 4-methoxy-N-[3-({4-[methyl(3-methyl-1H-indazol-6-yl)amino]-2-pyrimidinyl}amino)phenyl]benzenesulfonamide], the IC50 lay in the range of 201 to 500 nM.

Take `CNS(=O)(=O)c1ccc(OC)c(Nc2nccc(Nc3ccc4c(C)n[nH]c4c3)n2)c1` [Example 43, 4-methoxy-N-methyl-3-({4-[(3-methyl-1H-indazol-6-yl)amino]-2-pyrimidinyl}amino)benzenesulfonamide]: the IC50 was in the range of 201 to 500 nM.

On to `Cc1n[nH]c2cc(N(CC#N)c3ccnc(Nc4ccc(CS(C)(=O)=O)cc4)n3)ccc12` [Example 44, [(3-methyl-1H-indazol-6-yl)(2-{4-[(methylsulfonyl)methyl]anilino}-4-pyrimidinyl)amino]acetonitrile], for which the IC50 lay in the range of 201 to 500 nM.

With `CCS(=O)(=O)c1ccc(OC)c(Nc2nccc(N(CC#N)c3ccc4c(C)n[nH]c4c3)n2)c1` [Example 45, [{2-[5-(ethylsulfonyl)-2-methoxyanilino]-4-pyrimidinyl}(3-methyl-1H-indazol-6-yl)amino]acetonitrile], the IC50 is 501 to 1000 nM.

As to `Cc1n[nH]c2cc(N(CC#N)c3ccnc(Nc4cccc(CS(C)(=O)=O)c4)n3)ccc12` [Example 46, [(3-methyl-1H-indazol-6-yl)(2-{3-[(methylsulfonyl)methyl]anilino}-4-pyrimidinyl)amino]acetonitrile], the IC50 fell in the range of 1 to 200 nM.

On to `CNS(=O)(=O)c1ccc(OC)c(Nc2nccc(N(C)c3ccc4c(C)n[nH]c4c3)n2)c1` [Example 47, 4-methoxy-N-methyl-3-({4-[methyl(3-methyl-1H-indazol-6-yl)amino]-2-pyrimidinyl}amino)benzenesulfonamide], for which the IC50 fell in the range of 201 to 500 nM.

As to `Cc1n[nH]c2cc(N(C)c3ccnc(Nc4ccc(C(N)=O)cc4)n3)ccc12` [Example 48, 4-({4-[methyl(3-methyl-1H-indazol-6-yl)amino]-2-pyrimidinyl}amino)benzamide], the IC50 was 1 to 200 nM.

Consider `COc1cc(S(N)(=O)=O)ccc1Nc1nccc(N(C)c2ccc3c(C)n[nH]c3c2)n1` [Example 49, 3-methoxy-4-({4-[methyl(3-methyl-1H-indazol-6-yl)amino]-2-pyrimidinyl}amino)benzenesulfonamide], for which the IC50 was 1 to 200 nM.

With `C#CCN(c1ccc2c(C)n[nH]c2c1)c1ccnc(Nc2cccc(CS(C)(=O)=O)c2)n1` [Example 50], the IC50 fell in the range of 201 to 500 nM.

Consider `C#CCN(c1ccc2c(C)n[nH]c2c1)c1ccnc(Nc2cccc(S(N)(=O)=O)c2)n1` [Example 51, 3-({4-[(3-methyl-1H-indazol-6-yl)(2-propynyl)amino]-2-pyrimidinyl}amino)benzenesulfonamide], for which the IC50 fell in the range of 201 to 500 nM.

Turning to `Cc1n[nH]c2cc(N(C)c3ccnc(Nc4ccc(S(N)(=O)=O)cc4)n3)ccc12` [Example 52, 4-({4-[methyl(3-methyl-1H-indazol-6-yl)amino]-2-pyrimidinyl}amino)benzenesulfonamide], the IC50 fell in the range of 1 to 200 nM.

In the case of `Cc1n[nH]c2cc(N(C)c3ccnc(Nc4cccc(S(C)(=O)=O)c4)n3)ccc12` [Example 53, N^4-methyl-N^4-(3-methyl-1H-indazol-6-yl)-N^2-[3-(methylsulfonyl)phenyl]-2,4-pyrimidinediamine], the IC50 was in the range of 1 to 200 nM.

Turning to `COc1ccc(S(N)(=O)=O)cc1Nc1nccc(N(C)c2ccc3c(C)n[nH]c3c2)n1` [Example 54, 4-methoxy-3-({4-[methyl(3-methyl-1H-indazol-6-yl)amino]-2-pyrimidinyl}amino)benzenesulfonamide], the IC50 was 1 to 200 nM.

For the compound `CCS(=O)(=O)c1ccc(OC)c(Nc2nccc(Nc3ccc4c(C)n[nH]c4c3)n2)c1` [Example 55, N^2-[5-(ethylsulfonyl)-2-methoxyphenyl]-N^4-(3-methyl-1H-indazol-6-yl)-2,4-pyrimidinediamine], the IC50 lay in the range of 1 to 200 nM.

Regarding `Cc1n[nH]c2cc(N(C)c3ccnc(Nc4cccc(C(N)=O)c4)n3)ccc12` [Example 56, 3-({4-[methyl(3-methyl-1H-indazol-6-yl)amino]-2-pyrimidinyl}amino)benzamide], the IC50 fell in the range of 1 to 200 nM.

With `CCS(=O)(=O)c1ccc(Nc2nccc(N(C)c3ccc4c(C)n[nH]c4c3)n2)cc1` [Example 57, N^2-[4-(ethylsulfonyl)phenyl]-N^4-methyl-N^4-(3-methyl-1H-indazol-6-yl)-2,4-pyrimidinediamine], the IC50 lay in the range of 201 to 500 nM.

Regarding `CCS(=O)(=O)NCc1ccc(Nc2nccc(N(C)c3ccc4c(C)n[nH]c4c3)n2)cc1` [Example 58, N-[4-({4-[methyl(3-methyl-1H-indazol-6-yl)amino]-2-pyrimidinyl}amino)benzyl]ethanesulfonamide], the IC50 fell in the range of 1 to 200 nM.

Consider `Cc1n[nH]c2cc(N(C)c3ccnc(Nc4cccc(CNS(C)(=O)=O)c4)n3)ccc12` [Example 59, N-[3-({4-[methyl (3-methyl-1H-indazol-6-yl)amino]-2-pyrimidinyl}amino)benzyl]methanesulfonamide], for which the IC50 lay within 1 to 200 nM.

As to `Cc1n[nH]c2cc(N(C)c3ccnc(Nc4ccc(Cl)c(S(N)(=O)=O)c4)n3)ccc12` [Example 60, 2-chloro-5-({4-[methyl(3-methyl-1H-indazol-6-yl)amino]-2-pyrimidinyl}amino)benzenesulfonamide], the IC50 was 1 to 200 nM.

Take `Cc1n[nH]c2cc(N(C)c3ccnc(Nc4ccc(S(N)(=O)=O)c(Cl)c4)n3)ccc12` [Example 61, 2-chloro-4-({4-[methyl(3-methyl-1H-indazol-6-yl)amino]-2-pyrimidinyl}amino)benzenesulfonamide]: the IC50 lay within 201 to 500 nM.

As for `Cc1n[nH]c2cc(N(C)c3ccnc(Nc4cc(S(N)(=O)=O)ccc4Cl)n3)ccc12` [Example 62, 4-chloro-3-({4-[methyl(3-methyl-1H-indazol-6-yl)amino]-2-pyrimidinyl}amino)benzenesulfonamide], the IC50 lay in the range of 1 to 200 nM.
